Assays:
[1] = biological target: T1, co-condensation of RNA, G3BP1, and caprin 1 (Homo sapiens, UniProt Q13283); assay: In vitro LLPS, three-component system (G3BP1, caprin 1, RNA); type: biochemical; conditions: for IC50, inhibition of G3BP1-GFP in vitro phase separation / LogIC50, inhibition of G3BP1-GFP in vitro phase separation / IC50: 1.5 μM G3BP1, 1.5 μM caprin 1, 20 ng/μl total RNA; for IC50: read-out: IC50, inhibition of G3BP1-GFP in vitro phase separation; for co-condensation of caprin 1, G3BP1, and RNA: result in words; for HillSlope, inhibition of G3BP1-GFP in vitro phase separation: slope at the steepest part of the curve; for Bottom (lowest value of curve), percent inhibition of in vitro phase separation / Top (highest value of curve), percent inhibition of in vitro phase separation: three-component system
T1 construct: made in house; host or cells: E. coli BL21 (DE3)
T1 sequence (Q13283 whole entry): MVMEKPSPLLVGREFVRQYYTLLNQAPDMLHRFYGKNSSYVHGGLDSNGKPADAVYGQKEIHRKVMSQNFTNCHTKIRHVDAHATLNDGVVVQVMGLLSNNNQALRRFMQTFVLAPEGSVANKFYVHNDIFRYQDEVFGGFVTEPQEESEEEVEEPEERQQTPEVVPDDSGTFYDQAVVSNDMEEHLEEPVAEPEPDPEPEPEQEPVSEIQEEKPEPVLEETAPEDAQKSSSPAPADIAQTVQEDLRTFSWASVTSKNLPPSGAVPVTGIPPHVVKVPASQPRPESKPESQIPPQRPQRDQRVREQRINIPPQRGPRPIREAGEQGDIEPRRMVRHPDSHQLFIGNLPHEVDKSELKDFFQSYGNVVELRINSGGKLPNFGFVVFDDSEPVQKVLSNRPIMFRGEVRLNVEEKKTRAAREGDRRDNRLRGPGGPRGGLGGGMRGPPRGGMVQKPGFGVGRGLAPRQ
T1 sequence (Q13283 whole entry): as above
Procedure: LLPS assays were performed in 30 μl total volume at 25°C at pH 7.4 in buffer containing 37 mM Tris, pH 7.5, 116 mM NaCl, 0.33% NP-40, 2.6% glycerol, 0.5 mM DTT with 20 ng/μl total cellular RNA from U2OS cells and 1.425 μM G3BP1, 0.075 μM FLAG-GFP-G3BP1, and 1.5 μM caprin 1. Reactions were initiated by adding G3BP1/caprin 1 protein mix to cellular RNA, followed by 3 min of shaking at 450 rpm and then incubation for 70 min in the dark. For condensates formed with G3BP1 and RNA, 20 μM purified G3BP1 and 100 ng of total cellular RNA from HEK293T cells were added to a buffer consisting of 100 mM NaCl and 16.7 mM HEPES (pH 7.5) in the presence of the indicated dose of G3Ib or vehicle control.

[2] = test system: stress granule formation in U2OS cells stably expressing G3BP1-GFP; assay: Preincubation, heat shock-induced stress granule formation in U2OS; type: cell-based; conditions: 50 μM, 20 min pretreatment, 43°C heat shock, 15 min post heat shock
Procedure: For preincubation of compounds, U2OS or HeLa cells stably expressing G3BP1-GFP or CRISPR-modified cells expressing TDP-43-GFP/G3BP1-GFP were seeded into eight-well Lab-Tek chambered cover glass (Nunc). At least 20 min prior to the experiment, 1 ml FluoroBrite DMEM media (Gibco) supplemented with 10% FBS and 4 mM L-glutamine was combined with 0.1% DMSO or G3I compound (5, 10, or 50 μM). This solution was vortexed for 5 s, added to the cells at 250 μl per well, and left to incubate on the microscope for 20 min. Conditions were maintained at 37°C and 5% CO2 using a Bold Line Cage Incubator (Okolab) and an objective heater (Bioptechs). During this incubation time, 5 xy fields were stored per condition, with each field having ∼20–30 cells within it. After the 20-min incubation, 250 μl of 500 μM or 1 mM (2×) sodium arsenite (Sigma-Aldrich) diluted in the FluoroBrite media with an appropriate amount of G3I compound or DMSO was added to the sample. Imaging began immediately after, with images at each xy field being taken every 1 min. For heat shock experiments, U2OS G3BP1-GFP-expressing cells were seeded into a 35-mm glass bottom dish (MatTek). Prior to the experiment, 1.5 ml FluoroBrite DMEM media (Gibco) supplemented with 10% FBS and 4 mM L-glutamine was combined with 0.1% DMSO or 50 μM G3I compound. The sample was incubated on the environmentally controlled microscope for 20 min. […]

[3] = biological target: T2, interaction between G3BP1 and endogenous USP10 (Homo sapiens, UniProt Q13283); assay: Coimmunoprecipitation of G3BP1-GFP with endogenous USP10 in U2OS lysates; type: biochemical; conditions: increasing concentrations added to U2OS G3BP1-GFP lysates, GFP IP
T2 construct: expressed in transfected cells; host or cells: U2OS cells stably expressing G3BP1-GFP (lysate)
T2 sequence (Q13283 whole entry): as above
Procedure: U2OS cells expressing G3BP1-GFP were grown in 3-cm dishes to 100% confluency, at which point cells were collected and pelleted at 400 × g for 5 min. Pellets were either stored at −80°C or processed the same day by lysing with 200 μl in vivo lysis buffer (150 mM NaCl, 50 mM Tris [pH 7.5], 1 mM EDTA, 0.5% NP-40, and 10% glycerol, supplemented with 1 protease inhibitor tablet [11836170001; Roche]). Lysates were centrifuged at 13,000 × g at 4°C for 15 min, after which supernatants were transferred to a new tube and diluted with 200 μl lysis buffer containing indicated concentrations of G3I compounds. The mixture was then incubated with GFP-Trap (ChromoTek GFP-Trap Magnetic Agarose; Proteintech; gtma) for 2 h at 4°C. Beads were washed three times with lysis buffer, then incubated with 1× SDS sample buffer supplemented with 10% 2-mercaptoethanol, and boiled for 5 min at 95°C. Lysates were subjected to SDS-PAGE and then immunoblotted.
Samples were separated by SDS-PAGE and transferred to membranes. […] Membranes were visualized and quantified with an Odyssey Fc imaging system (LI-COR) and normalized to the amount of G3BP1 immunoprecipitated.

| Structure (SMILES) | IC50, inhibition of G3BP1-GFP in vitro phase separation [1] | LogIC50, inhibition of G3BP1-GFP in vitro phase separation [1] | LogIC50, inhibition of G3BP1-GFP in vitro phase separation ([1]; listed as G3Ia') | IC50 [1] | co-condensation of caprin 1, G3BP1, and RNA [1] | HillSlope, inhibition of G3BP1-GFP in vitro phase separation [1] | HillSlope, inhibition of G3BP1-GFP in vitro phase separation ([1]; listed as G3Ia') | Bottom (lowest value of curve), percent inhibition of in vitro phase separation [1] | Top (highest value of curve), percent inhibition of in vitro phase separation [1] | reduction of stress granule formation compared with inactive enantiomer [2] | interaction between G3BP1 and endogenous USP10 [3] | LogIC50, inhibition of G3BP1-GFP in vitro phase separation ([1]; listed as G3Ib') | HillSlope, inhibition of G3BP1-GFP in vitro phase separation ([1]; listed as G3Ib') |
| --- | --- | --- | --- | --- | --- | --- | --- | --- | --- | --- | --- | --- | --- |
| COCCC(NC(=O)C(C)NC(=O)C(NC(=O)C(NC(=O)C(F)CC(C)(C)C)C(C)(C)O)C(C)c1ccccc1)C(=O)N(C)Cc1ccccc1 (stereo not shown) [G3Ia] | Unstable | 0.6508 | Unstable | 4.48 µM | disrupted the co-condensation | 1.354 | Unstable | Unstable | Unstable | ~79% | – | – | – |
| CC(NC(=O)C(NC(=O)C(NC(=O)CCC(C)(C)C)C(C)(C)O)C(C)c1ccccc1)C(=O)N1CCCC1c1ccccc1 (stereo not shown) [G3Ib] | Unstable | 0.5379 | – | 3.45 µM | disrupted the co-condensation | 1.004 | – | 4.401 | 1.518 | ~82% | dose-dependent reduction | Unstable | Unstable |
| CC(NC(=O)C(NC(=O)C(NC(=O)CCC(C)(C)C)C(C)(C)O)C(C)c1ccccc1)C(=O)N1CCCC1c1ccccc1 (stereo not shown) [G3Ib′] | – | – | – | – | – | – | – | – | – | – | no such effect | – | – |

Source: publication PMC10824102, “Identification of small molecule inhibitors of G3BP-driven stress granule formation” (The Journal of Cell Biology, 2024)
